# Assays:
# [1] = tested on: K-562 cells; conditions: 10 µM; cited from earlier work
# [2] = tested on: MCF-7 breast; set-up: method as in PMID 29223717; conditions: cited from earlier work
# [3] = tested on: 143B osteosarcoma; set-up: method as in PMID 29223717; conditions: cited from earlier work
# [4] = tested on: HCT-116 colon; set-up: method as in PMID 29223717; conditions: cited from earlier work
# [5] = tested on: cervical cancer HeLa; test: MTT assay, HeLa cells; format: cell-based, human
# Procedure: (§1) The human gastric adenocarcinoma AGS, cervical cancer HeLa, and acute promyelocytic leukemia HL-60 cells were obtained from the American Type Culture Collection (ATCC, Manassas, VA, USA). Human neonatal fibroblasts were obtained from LGC Standards (Luckenwalde, Germany). The HeLa and AGS lines were cultured in Dulbecco’s modified Eagle’s medium (DMEM) and DMEM/F12 medium, respectively. The HL-60 line was maintained in RPMI-1640 medium. Fibroblasts were cultured in Fibroblast Growth Medium with Supplement Mix. All the media were supplemented with 100 units/mL of penicillin, 100 µg/mL of streptomycin, and 10% (v/v) fetal bovine serum (FBS) (Merck Millipore, Burlington, MA, USA). The cells were incubated at 37 °C and 5% CO2.
# (§2) To estimate the cytotoxic effect of the five compounds (4–8), MTT (3-(4,5-dimethylthiazol-2-yl)-2,5-diphenyltetrazolium bromide) assay was used. Oxaliplatin was used as a positive control in this test. All the cell lines were seeded in 96-well plates at a density of 5 × 10^3 cells/well and treated for 24 h with the compounds at concentrations of 0.5–40 µg/mL. Oxaliplatin was tested in the range of 20–400 µg/mL (50–1000 µM). After treatment, the cells were incubated with MTT (0.5 mg/mL; Merck Millipore, Burlington, MA, USA) for 3 h. Then, DMSO was used to dissolve formazan crystals, and the absorbance of the formazan solution was measured with a plate reader (Epoch, BioTek Instruments, Santa Clara, CA, USA). All the results (±standard deviation (SD)) were obtained from six repetitions in at least two independent experiments. The data are expressed as IC50 values (µg/mL).
# [6] = target: T1, neutrophil elastase (Sus scrofa, UniProt P00772); test: Elastase assay (SANA substrate); format: biochemical, porcine; conditions: Tris-HCl pH 8.0, SANA substrate; read-out: neutrophil elastase inhibition IC50 (converted)
# T1 construct: purchased Sigma Chemical Co. (St. Louis, MO, USA)
# Procedure: The elastase analysis was performed according to the spectrophotometric method with oleanolic acid as a reference. The reaction mixture (Tris-HCl buffer (pH 8.0), 1.0 μg/mL porcine pancreatic elastase, and different concentrations of chalcone derivatives was preincubated at room temperature for 15 min. Afterwards, the addition of the substrate—SANA—started the reaction. Product formation changes were analyzed at λ = 410 nm for 20 min every 20 s (Epoch, BioTek Instruments, Santa Clara, CA, USA). The control was composed of Tris-HCl buffer (pH 8.0), an appropriate concentration of the chalcone derivative, and SANA.
# [7] = tested on: acute promyelocytic leukemia HL-60; test: MTT assay, HL-60 cells; format: cell-based, human
# Procedure: as §1, §2
# [8] = tested on: cancer cells (HeLa, HL-60, AGS); test: MTT assay, cancer cells taken together; format: cell-based, human; conditions: HL-60 and AGS together
# Procedure: as §1, §2
# [9] = tested on: gastric adenocarcinoma AGS; test: MTT assay, AGS cells; format: cell-based, human
# Procedure: as §1, §2
# [10] = tested on: Helicobacter pylori ATCC43504; test: MIC determination; format: cell-based; conditions: 37 °C, 48 h
# Procedure: (§3) The MIC determinations for Staphylococcus epidermidis ATCC14990, Staphylococcus aureus ATCC6538, Enterococcus faecalis ATCC51299, Klebsiella pneumoniae ATCC13883, Escherichia coli ATCC8739, Salmonella enterica ATCC13076, Helicobacter pylori ATCC43504, Campylobacter jejuni ZMF, Campylobacter coli ZMF, Bacillus cereus PCM 1948,2019 (ATCC11778), and Listeria monocytogenes PCM2191 were performed based on the methodology described by Krauze-Baranowska et al.. The procedure for H. pylori was used in the experiments with Campylobacter strains, and the procedure for B. subtilis was used in the experiments with L. monocytogenes and B. cereus. The tested samples were dissolved in DMSO and diluted with water (concentration of approximately 500 μg/mL). The solutions were diluted geometrically by transferring the mixture/dilution (100 μL) from the first to the twelfth well of the microtiter plate. The final concentrations of samples used for antimicrobial effects ranged from 500 to 0.006 µg/mL. Ampicillin was used as a reference compound in the concentration range of 128 to 0.0625 µg/mL. The tests were incubated at 37 °C for 48 h. The diluent concentration had no effect on the activity of the tested compounds. All experiments were performed in triplicate.
# [11] = tested on: Campylobacter coli ZMF; test: MIC determination; format: cell-based; conditions: 37 °C, 48 h
# Procedure: as §3
# [12] = tested on: Klebsiella pneumoniae ATCC13883; test: MIC determination; format: cell-based; conditions: 37 °C, 48 h
# Procedure: as §3
# [13] = tested on: Staphylococcus aureus ATCC6538; test: MIC determination; format: cell-based; conditions: 37 °C, 48 h
# Procedure: as §3
# [14] = tested on: Staphylococcus epidermidis ATCC14990; test: MIC determination; format: cell-based; conditions: 37 °C, 48 h
# Procedure: as §3
# [15] = tested on: Enterococcus faecalis ATCC51299; test: MIC determination; format: cell-based; conditions: 37 °C, 48 h
# Procedure: as §3
# [16] = tested on: Escherichia coli ATCC8739; test: MIC determination; format: cell-based; conditions: 37 °C, 48 h
# Procedure: as §3
# [17] = tested on: Salmonella enterica ATCC13076; test: MIC determination; format: cell-based; conditions: 37 °C, 48 h
# Procedure: as §3
# [18] = tested on: Campylobacter jejuni ZMF; test: MIC determination; format: cell-based; conditions: 37 °C, 48 h
# Procedure: as §3
# [19] = tested on: Bacillus cereus PCM 1948,2019 (ATCC11778); test: MIC determination; format: cell-based; conditions: 37 °C, 48 h
# Procedure: as §3
# [20] = tested on: Listeria monocytogenes PCM2191; test: MIC determination; format: cell-based; conditions: 37 °C, 48 h
# Procedure: as §3
# [21] = β-Carotene bleaching test
# Procedure: β-Carotene bleaching test was based on the method described by Olszowy et al. with some modifications. First, 1 mg of β-carotene was dissolved in 5 mL of chloroform. Afterwards, […] of linoleic acid and 200 mg of Tween 40 were added. The chloroform was evaporated, and 50 mL of oxygenized water was added. The created emulsion was mixed with different concentrations of chalcone derivatives. β-carotene bleaching was analyzed at λ = 492 nm before (t = 0 min) and after 90 min (t = 90 min) of incubation at 50 °C (Epoch, BioTek Instruments, Santa Clara, CA, USA). Ascorbic acid was used as a standard. The control was composed of emulsion and DMSO.
# The results were calculated according to the following Formula (4):[(AsampleT0 − AsampleT90)/(AcontrolT0 − AcontrolT90) × 100%(4)
# [22] = DPPH radical scavenging assay; conditions: for % of DPPH radical inhibition: concentration of 800 µg/mL
# Procedure: The DPPH radical scavenging assay of samples (ligands or complexes) was performed with ascorbic acid as a standard. Different concentrations of chalcone derivatives, dissolved in DMSO, were mixed with the same amount of 0.06 mM DPPH methanolic solution and incubated at room temperature in the dark for 30 min. The absorbance was analyzed at λ = 517 nm using a 96-well microplate reader (Epoch, BioTek System, Winooski, VT, USA). The control was composed of DPPH and DMSO. DPPH inhibition was calculated according to the following Formula (2):DPPH Inhibition (%) = [(Acontrol − Asample)/Acontrol] × 100%(2)
# [23] = tested on: human neonatal fibroblasts; test: MTT assay, noncancerous fibroblasts; format: cell-based; conditions: Homo sapiens, Fibroblast, 24 h treatment
# Procedure: as §1, §2
# [24] = tested on: colon cancer cells (HTC-116); set-up: method as in PMID 12556221; conditions: preclinical tests; cited from earlier work
# [25] = ABTS radical scavenging assay
# Procedure: The ABTS radical scavenging assay of chalcone derivatives was performed with ascorbic acid as a standard. Different concentrations of samples, dissolved in DMSO, were mixed with 170 μL of ABTS solution (2 mM ABTS diammonium salt and 3.5 mM potassium persulfate), and water was added to a final volume of 300 μL. ABTS solution with DMSO was used as a control. […] ABTS inhibition was calculated according to the following Formula (3):ABTS Inhibition (%) = [(Acontrol − Asample)/Acontrol] × 100%(3)
# [26] = tested on: hepatocellular carcinoma HepG2 cells; set-up: method as in PMID 32545423; conditions: cited from earlier work
# [27] = target: BRAF serine–threonine kinase; set-up: method as in PMID 22646766; conditions: cited from earlier work
# [28] = SI = IC50 noncancer cells/IC50 cancer cells, in relation to human neonatal fibroblasts
# T1 sequence (P00772 27-266): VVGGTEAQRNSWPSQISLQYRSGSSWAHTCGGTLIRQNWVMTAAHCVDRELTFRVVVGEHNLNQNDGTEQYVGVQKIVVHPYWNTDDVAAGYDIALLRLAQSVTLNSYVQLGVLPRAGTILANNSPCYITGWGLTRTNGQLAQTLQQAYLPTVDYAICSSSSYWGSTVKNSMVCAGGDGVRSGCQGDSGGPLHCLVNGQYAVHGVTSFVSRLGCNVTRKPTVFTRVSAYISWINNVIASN
molecule,measurement,setting,value
COc1ccc(C(=O)C=Cc2ccccc2)cc1S(N)(=O)=O [5-cinnamoyl-2-methoxybenzenesulfonamide],viability of leukemia cells,[1],less than 10%
Cc1cccc(S(=O)(=O)Nc2cccc(/C=C/C(=O)c3nc4ccccc4[nH]3)c2)c1 [(E)-N-{3-[3-(1H-benzo[d]imidazol-2-yl)-3-oxoprop-1-en-1-yl]phenyl}-3-methylbenzenesulfonamide],IC50,[2],890 nM
same,IC50,[3],790 nM
same,IC50,[4],600 nM
"Cc1ccc(/C=C/C(=O)c2ccc(NS(=O)(=O)c3cc(C)c(Cl)cc3Cl)cc2)cc1 [Compound 8, (E)-2,4-Dichloro-5-Methyl-N-{4-[3-(p-Tolyl)acryloyl]phenyl}benzenesulfonamide]",IC50,"[5]; Homo sapiens, HeLa, MTT, 24 h treatment",7.96 ± 0.37 µg/mL
same,selectivity index HeLa,[5]; [28],3.50
same,IC50,[6],55900 nM
same,IC50,"[7]; Homo sapiens, HL-60, 24 h, MTT, 24 h treatment",2.9 ± 0.17 µg/mL
same,selectivity index HL-60,[7]; [28],9.58
same,IC50 toward cancer cells,[8],weaker activity
same,IC50,"[9]; Homo sapiens, AGS, 24 h, MTT, 24 h treatment",3.6 ± 0.33 µg/mL
same,selectivity index AGS,[9]; [28],7.72
same,MIC,[10],> 500 µg/mL
same,MIC,[11],> 500 µg/mL
same,MIC,[12],> 500 µg/mL
same,MIC,[13],> 500 µg/mL
same,MIC,[14],> 500 µg/mL
same,MIC,[15],> 500 µg/mL
same,MIC,[16],> 500 µg/mL
same,MIC,[17],> 500 µg/mL
same,MIC,[18],> 500 µg/mL
same,MIC,[19],> 500 µg/mL
same,MIC,[20],> 500 µg/mL
same,protection of lipids oxidation / reduction of lipid peroxidation (in words),[21]; compared to ascorbic acid,weaker properties
same,% of DPPH radical inhibition,[22],0.32 ± 0.03%
same,IC50,[23],27.8 ± 2.82 µg/mL
NS(=O)(=O)c1ccc(S(=O)(=O)Nc2cccc3c(Cl)c[nH]c23)cc1 [Indisulam],IC50 colon cancer cells (HTC-116),[24],0.11 µg/mL
"O=C1O[C@H]([C@@H](O)CO)C(O)=C1O [ascorbic acid, reference compound]",ABTS IC50,[25],20.43 ± 0.79 µg/mL
same,% of ABTS radical inhibition,[25]; concentration of 800 µg/mL,100%
same,β-carotene bleaching IC50,[21]; 90 min at 50 °C,15.6 ± 0.65 µg/mL
same,DPPH IC50,[22],12.75 ± 0.25 µg/mL
same,% of DPPH radical inhibition,[22],100%
COc1cc(O)cc(O)c1C(=O)/C=C/c1ccccc1 [cardamonin],IC50,[26],17100 ± 592 nM
CCCS(=O)(=O)Nc1ccc(F)c(C(=O)c2c[nH]c3ncc(-c4ccc(Cl)cc4)cc23)c1F [vemurafenib],IC50,[27],31 nM
methoxytolylacryloylbenzenesulfonamide,viability of leukemia cells,[1],less than 10%
